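96-well plates; 48 h exposure; 5 concentrations. Endpoints by linear interpolation between flanking doses. Not reached: highest tested concentration assigned. At the TGI there is no net growth.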
Key:
Test in all cases: growth of human tumour cells (NCI), 48 h
[1] = tested on: NCI-H23 lung
[2] = tested on: MDA-N
[3] = tested on: K-562 leukemia
[4] = tested on: TK-10 renal
[5] = tested on: MOLT-4 leukemia
[6] = tested on: ACHN renal
[7] = tested on: SNB-19 CNS
[8] = tested on: MCF7 breast
[9] = tested on: OVCAR-8 ovarian
[10] = tested on: T-47D breast
[11] = tested on: NCI/ADR-RES ovarian
[12] = tested on: MDA-MB-435
[13] = tested on: HT29 colon
[14] = tested on: OVCAR-5 ovarian
[15] = tested on: M14 melanoma
[16] = tested on: A498 renal
[17] = tested on: NCI-H226 lung
[18] = tested on: SK-MEL-5 melanoma
[19] = tested on: A549 NSCLC
[20] = tested on: LOX IMVI melanoma
[21] = tested on: SK-MEL-28 melanoma
[22] = tested on: MDA-MB-231 breast
[23] = tested on: HL-60(TB) leukemia
[24] = tested on: CAKI-1 renal
[25] = tested on: UACC-62 melanoma
[26] = tested on: HS 578T breast
[27] = tested on: SW-620 colon
[28] = tested on: U251 CNS
[29] = tested on: SK-MEL-2 melanoma
[30] = tested on: PC-3 prostate
[31] = tested on: RXF 393 renal
[32] = tested on: HCT-116 colon
[33] = tested on: SF-295 CNS
[34] = tested on: UACC-257 melanoma
[35] = tested on: BT-549 breast
[36] = tested on: SR leukemia
[37] = tested on: HOP-92 NSCLC
[38] = tested on: DU-145 prostate
[39] = tested on: OVCAR-4 ovarian
[40] = tested on: EKVX NSCLC
[41] = tested on: SN12C renal
[42] = tested on: UO-31 renal
[43] = tested on: COLO 205 colon
[44] = tested on: RPMI-8226 leukemia
[45] = tested on: KM12 colon
[46] = tested on: MALME-3M melanoma
[47] = tested on: HCT-15 colon
[48] = tested on: 786-0 renal
[49] = tested on: SF-268 CNS
[50] = tested on: OVCAR-3 ovarian
[51] = tested on: IGROV1 ovarian
[52] = tested on: HOP-62 NSCLC
[53] = tested on: NCI-H522 lung
[54] = tested on: SK-OV-3 ovarian
[55] = tested on: SNB-75 CNS
[56] = tested on: NCI-H460 lung
[57] = tested on: HCC-2998 colon
[58] = tested on: SF-539 CNS
[59] = tested on: CCRF-CEM leukemia

O=C1NC(Cc2c[nH]c3ccccc23)C(=O)N2C(c3ccccc3)c3[nH]c4ccccc4c3C[C@@H]12 (stereo partly specified)
TGI [1]: 57.1 µM | TGI [2]: 38.9 µM | TGI [3]: 55.1 µM | TGI [4]: 91.4 µM | TGI [5]: 42.2 µM | TGI [6]: 89.2 µM | TGI [7]: > 100 µM | TGI [8]: > 100 µM | TGI [9]: 82.7 µM | TGI [10]: > 100 µM | TGI [11]: 58.3 µM | TGI [12]: 39.7 µM | TGI [13]: 48.6 µM | TGI [14]: 45.2 µM | TGI [15]: 49.1 µM | TGI [16]: > 100 µM | TGI [17]: 88.9 µM | TGI [18]: 32.7 µM | TGI [19]: > 100 µM | TGI [20]: 40.6 µM | TGI [21]: > 100 µM | TGI [22]: 42.2 µM | TGI [23]: 50.8 µM | TGI [24]: 55.9 µM | TGI [25]: 34.7 µM | TGI [26]: 40.6 µM | TGI [27]: > 100 µM | TGI [28]: 39.2 µM | TGI [29]: 46.5 µM | TGI [30]: 53.8 µM | TGI [31]: 34.3 µM | TGI [32]: 30.6 µM | TGI [33]: 33.1 µM | TGI [34]: 51.6 µM | TGI [35]: 46.4 µM | TGI [36]: 37.7 µM | TGI [37]: 53.7 µM | TGI [38]: > 100 µM | TGI [39]: > 100 µM | TGI [40]: 65.2 µM | TGI [41]: 33.3 µM | TGI [42]: 67.3 µM | TGI [43]: 45.9 µM | TGI [44]: 50.8 µM | TGI [45]: 40 µM | TGI [46]: 33.7 µM | TGI [47]: 54.3 µM | TGI [48]: 39.1 µM | TGI [49]: 95.7 µM | TGI [50]: 35.7 µM | TGI [51]: 50.1 µM | TGI [52]: 38.2 µM | TGI [53]: 45.5 µM | TGI [54]: > 100 µM

NC(=O)NC(=O)c1ccc(NC(=O)CBr)cc1
TGI [1]: 4.59 µM | TGI [2]: 5 µM | TGI [3]: 3.92 µM | TGI [55]: 4.19 µM | TGI [4]: 2.68 µM | TGI [5]: 2.61 µM | TGI [6]: 2.91 µM | TGI [7]: > 49.8 µM | TGI [8]: 4.9 µM | TGI [9]: 8.38 µM | TGI [56]: 9.74 µM | TGI [10]: 4.01 µM | TGI [57]: 25.5 µM | TGI [58]: 6.35 µM | TGI [11]: 7.53 µM | TGI [12]: 3.06 µM | TGI [13]: 3.42 µM | TGI [14]: 7.34 µM | TGI [16]: 36 µM | TGI [17]: 10.2 µM | TGI [18]: 3.23 µM | TGI [19]: > 32.6 µM | TGI [20]: 2.26 µM | TGI [21]: 13.1 µM | TGI [22]: 6.48 µM | TGI [23]: 3.27 µM | TGI [24]: 1.52 µM | TGI [25]: 4.03 µM | TGI [26]: 7.37 µM | TGI [27]: 1.74 µM | TGI [28]: 2.25 µM | TGI [29]: 4.61 µM | TGI [30]: 4.39 µM | TGI [59]: 0.376 µM | TGI [31]: 3.32 µM | TGI [32]: 2.29 µM | TGI [33]: 27.3 µM | TGI [34]: 5.29 µM | TGI [35]: 4.7 µM | TGI [36]: 1.01 µM | TGI [37]: 4.59 µM | TGI [38]: 6.92 µM | TGI [40]: 5.41 µM | TGI [41]: 1.18 µM | TGI [42]: 2.78 µM | TGI [43]: 2.99 µM | TGI [44]: 3.59 µM | TGI [45]: 10.1 µM | TGI [46]: 3.96 µM | TGI [47]: 4.56 µM | TGI [48]: 0.919 µM | TGI [49]: 3.09 µM | TGI [50]: 2.74 µM | TGI [51]: 4.78 µM | TGI [52]: 4.81 µM | TGI [53]: 0.277 µM | TGI [54]: 9.49 µM

— PubChem BioAssay (NCI)
